Results from patent publication US20160206631A1, “OXYSTEROLS THAT ACTIVATE LIVER X RECEPTOR SIGNALING AND INHIBIT HEDGEHOG SIGNALING” (THE REGENTS OF THE UNIVERSITY OF CALIFORNIA, priority 2010, published 2016).

Assays:
LXR [1] = assay: ABCA1 (LXR target gene) expression by Q-RT-PCR in M2-10B4 bone marrow stromal cells; details: for fold induction at 2 µM: M210B4, 48 h, read-out: ABCA1 gene expression, Fold Induction ± SD; for LXR signaling activation: bone marrow stromal cells
Procedure: This was measured by the ability of these molecules to induce the expression of LXR-target genes, including ABCA1, in M2-10B4 bone marrow stromal cells (MSC) after 48 hours of treatment (Table 1).

REH human ALL cells = assay: Clonogenic growth of REH ALL cells; type: cell-based
Procedure: (§1) Following treatment cells were harvested by washing cells twice with phosphate buffered saline (PBS) followed by enzymatically detaching with trypsin/EDTA. Cells were collected then washed twice with PBS. Cells were counted then resuspended in 500 uL of media. The volume of cells required for 2,000 cells from the control group was removed from each group then mixed with methylcellulose (1.2%) containing 30% fetal bovine serum, 1% bovine serum albumin, 10^-4 M 2-mercaptoethanol, and 2 mM L-glutamine. Cells were plated in low-attachment 6 well plates (1 ml/well), each group being plated in triplicate. Following 10 days of incubation, tumor cell colonies consisting of >40 cells were counted using an inverted microscope. Results are presented as the percentage of colonies from each treatment group compared to the control group (Table 2).
A similar experiment to that shown above for pancreatic cancer cells was performed using the human ALL cells, REH (Table 3).

[2] = tested on: human primary multiple myeloma cells derived from patients; assay: Clonogenic growth of primary multiple myeloma cells from patients in methylcellulose; type: cell-based; details: 1 μM, 96 hours, CD34+ and CD138+ depleted bone marrow mononuclear cells
[3] = tested on: human NCI-H929 multiple myeloma cell line; assay: Clonogenic growth of NCI-H929 multiple myeloma cells; type: cell-based; details: 1 μM, 96 hours, colonies after 10 days (FIG. 6)
Procedure: NCI-11929 multiple myeloma cells were treated for 96 hours with control vehicle or 1 μM of each compound as shown. Next, drugs were removed and cells were plated in methylcellulose. Clonogenic growth of colonies determined after 10 days. Data are reported as percentage of colony number normalized to control group.
In order to examine the effect of LXR activation on the clonogenic growth of multiple myeloma cells, the human NCI-H929 multiple myeloma cell line was used.

[4] = tested on: NCI-H929 multiple myeloma cancer stem cells; assay: Percentage of cancer stem cells (CD138 negative, ALDH positive) in NCI-H929 cultures by flow cytometry; type: cell-based, human; details: 1 μM, 96 hours (FIGS. 7, 8)
Procedure: NCI-H929 multiple myeloma cells were treated for 96 hours with control vehicle or 1 μM of each compound as shown. Next, percentage of CD138negative cells in the same number of starting cells from each group was determined by flow cytometry.
NCI-H929 multiple myeloma cells were treated for 96 hours with control vehicle or 1 μM of each compound as shown. Next, percentage of ALDH+ cells in the same number of starting cells from each group was determined by flow cytometry.

[5] = tested on: L3.6p1 human pancreatic cancer cells; assay: Clonogenic growth of L3.6p1 pancreatic cancer cells in methylcellulose; type: cell-based; details: 72 hours treatment, colonies counted after 10 days
Procedure: as §1

LXR [6] = assay: LXR target gene expression by Q-RT-PCR in Saos-2 osteosarcoma cells; type: cell-based, human; details: Saos-2 cells (FIG. 2, 72 hours for TO)
From the text: Data from a representative experiment are reported as the Data from a representative experiment are reported as the mean of triplicate determinations±SD relative to the expression level of LXRα (p<0.001 for control vs. both concentrations of TO for ABCA1 and SREBP1c mRNA).
Culturing the cells in varying serum (FBS) concentrations from 1% to 10% had no effect on LXRs or LXR target gene expression levels at baseline.

[7] = tested on: Saos-2 human osteosarcoma cells; assay: Anchorage-independent clonogenic growth of Saos-2 cells; type: cell-based; details: Saos-2; 1 μM, 72 hours, colonies after 10 days (FIG. 4)
Procedure: (§2) Next, cells were harvested and examined for clonogenic growth in non-adherent plates after 10 days of culturing. Data from a representative of two separate experiments are reported as the relative number of colonies formed by cells treated with LXR ligands relative to cells treated with control vehicle (% of control).
(§3) We examined whether LXR activation inhibits the clonogenic growth of human osteosarcoma cells using an anchorage-independent cell growth assay. Saos-2 and U2OS cells were seeded in standard tissue culture plates and treated for 72 hours with control vehicle or 1 μM of TO, 22R, or Oxy16. Following treatments with LXR ligands, the drugs were removed and the cells harvested and plated in methylcellulose media in non-adherent plates (Costar) and the cell colonies formed after 10 days were counted.

[8] = tested on: U2OS human osteosarcoma cells; assay: Anchorage-independent clonogenic growth of U2OS cells; type: cell-based; details: 1 μM, 72 hours, colonies after 10 days (FIG. 4)
Procedure: as §2, §3

Hedgehog signaling = assay: CAPAN-1 conditioned-medium-induced Hh target gene expression (Ptch1, HHIP, Gli1) in C3H10T1/2 cells; type: cell-based; details: C3H10T1/2 cells treated with CAPAN-1 CM
Procedure: Next, cells were treated with DMEM containing 5% […] or CAPAN-1 CM in the presence or absence of TO, Oxy16, or Cyc. After 48 hours, RNA was extracted and analyzed by Q-RT-PCR for the expression of Hh target genes Ptch1, HHIP, and Gli1 and normalized to GAPDH expression.
As noted above, Hh signaling appears to play an important role in the initiation and progression of pancreatic cancer (26), and the inhibition of HE signaling using small molecule antagonists inhibits pancreatic cancer cells from growing in vitro and in vivo (50). […] Subsequently, Hh signaling in stromal cells provides a permissive milieu for tumor cells to grow. […] In this Example, we examine this possibility using an in vitro model system in which Hh signaling is induced in C3H10T1/2 embryonic fibroblasts by conditioned-medium (CM) from CAPAN-1 human pancreatic cancer cells.
In order to assess the functional activity of Hh proteins produced by CAPAN-1 cells, we examined the ability of CM to induce Hh target gene expression in C3H10T1/2 embryonic fibroblasts.

[9] = tested on: human pancreatic cancer cells; assay: Clonogenic growth of human pancreatic cancer cells in vitro; type: cell-based
LXR [10] = assay: LXR target gene expression in human pancreatic cancer cells

C[C@]12CC[C@H]3[C@@H](CC=C4C[C@@H](O)CC[C@@]43C)[C@@H]1CC[C@@H]2[C@@](C)(O)CCc1ccc(Cl)cc1 [Oxy47, (3S,8S,9S,10R,13S,14S,17S)-17-((S)-4-(4-Chlorophenyl)-2-hydroxybutan-2-yl)-10,13-dimethyl-2,3,4,7,8,9,10,11,12,13,14,15,16,17-tetradecahydro-1H-cyclopenta-[a]-phenanthren-3-ol]
fold induction at 2 µM (LXR [1]): 1.8 ± 0.5 | LXR signaling activation (LXR [1]): Activate LXR Signaling

C[C@]12CC[C@H]3[C@@H](CC=C4C[C@@H](O)CC[C@@]43C)[C@@H]1CC[C@@H]2[C@@](C)(O)CCc1ccc(F)cc1 [Oxy45, (3S,8S,9S,10R,13S,14S,17S)-17-((S)-4-(4-Fluorophenyl)-2-hydroxybutan-2-yl)-10,13-dimethyl-2,3,4,7,8,9,10,11,12,13,14,15,16,17-tetradecahydro-1H-cyclopenta-M-phenanthren-3-ol]
Normalized Colony # (% of control) (REH human ALL cells; 0.1 μM): 43 % of control | Raw Colony # (REH human ALL cells; 0.1 μM): 40 | Normalized Colony # (% of control) (REH human ALL cells; 0.5 μM): 0.5 % of control | Raw Colony # (REH human ALL cells; 0.5 μM): 0.5 | colony formation (% of control) ([2]; Specimen # 1): 46 % of control | colony formation (% of control) ([2]; Specimen # 2): 25 % of control | clonogenic growth [3]: inhibited clonogenic growth | percentage of cancer stem cells (CD138 negative and ALDH positive cells) [4]: significantly reduced | fold induction at 2 µM (LXR [1]): 3.5 ± 0.5 | LXR signaling activation (LXR [1]): Activate LXR Signaling

CC(C)CCC[C@](C)(O)C1CCC2C3CC=C4C=CCC[C@]4(C)C3CC[C@@]21C (stereo partly drawn) [Oxy37, (2S)-2-((10R,13S)-10,13-Dimethyl-2,7,8,9,10,11,12,13,14,15,16,17-dodecahydro-1H-cyclopenta[a]phenanthren-17-yl)-6-methylheptan-2-ol]
fold induction at 2 µM (LXR [1]): 2 ± 0.1 | LXR signaling activation (LXR [1]): Activate LXR Signaling

CC(C)CCC[C@](C)(O)C1CCC2C3CC=C4C[C@H](O)CC[C@]4(C)C3CC[C@@]21C (stereo partly drawn) [Oxy35, (3R,10R,13S)-17-((S)-2-Hydroxy-6-methylheptan-2-yl)-10,13-dimethyl-2,3,4,7,8,9, 10,11,12,13,14,15,16,17-tetradecahydro-1H-cyclopenta[a]phenanthren-3-ol]
fold induction at 2 µM (LXR [1]): 4 ± 1.2 | LXR signaling activation (LXR [1]): Activate LXR Signaling

CC(C)CCC[C@](C)(O)C1CCC2C3CCC4=CC(=O)CC[C@]4(C)C3CC[C@@]21C (stereo partly drawn) [Oxy31, (10R,13S)-17-((S)-2-Hydroxy-6-methylheptan-2-yl)-10,13-dimethyl-6,7,8,9,10,11,12, 13,14,15,16,17-dodecahydro-1H-cyclopenta[a]phenanthren-3(2H)-one]
fold induction at 2 µM (LXR [1]): 2 ± 0.3 | LXR signaling activation (LXR [1]): Activate LXR Signaling

CC(C)CCC[C@](C)(O)C1CCC2C3CC=C4CC(=O)CC[C@]4(C)C3CC[C@@]21C (stereo partly drawn) [Oxy30, (10R,13S)-17-((S)-2-Hydroxy-6-methylheptan-2-yl)-10,13-dimethyl-4,7,8,9,10,11,12, 13,14,15,16,17-dodecahydro-1H-cyclopenta[a]phenanthren-3(2H)-one]
Normalized Colony # (% of control) ([5]; 5 μM): 39 % of control | Raw Colony # ([5]; 5 μM): 96 | Normalized Colony # (% of control) ([5]; 10 μM): 41 % of control | Raw Colony # ([5]; 10 μM): 100 | fold induction at 2 µM (LXR [1]): 2.8 ± 0.8 | LXR signaling activation (LXR [1]): Activate LXR Signaling

CC(C)CC[C@@H](O)[C@@H](C)[C@H]1CC[C@H]2[C@@H]3CC=C4C[C@@H](O)CC[C@]4(C)[C@H]3CC[C@]12C [Oxy 22R, 22R-hydroxycholesterol, reference compound]
Normalized Colony # (% of control) ([5]; 5 μM): 63 % of control | Raw Colony # ([5]; 5 μM): 153 | Normalized Colony # (% of control) ([5]; 10 μM): 59 % of control | Raw Colony # ([5]; 10 μM): 142 | Normalized Colony # (% of control) (REH human ALL cells; 0.1 μM): 36 % of control | Raw Colony # (REH human ALL cells; 0.1 μM): 33 | Normalized Colony # (% of control) (REH human ALL cells; 0.5 μM): 2 % of control | Raw Colony # (REH human ALL cells; 0.5 μM): 2 | expression of LXR target genes ABCA1 and SREBP1c (LXR [6]): significant expression | clonogenic growth [7]: significant inhibition | clonogenic growth [8]: significant inhibition | CM-induced Hh signaling (Hedgehog signaling): inhibited | clonogenic growth [9]: significantly inhibit | expression of LXR target genes (LXR [10]): induce the expression of LXR target genes

CC(C)CCC[C@](C)(O)[C@H]1CC[C@H]2[C@@H]3CC=C4C[C@@H](O)CC[C@]4(C)[C@H]3CC[C@@]21C [Oxy 20S, 20(S)-hydroxycholesterol, reference compound]
expression of LXR target genes ABCA1 and SREBP1c (LXR [6]): significant expression

C[C@]12CC[C@H]3[C@@H](CC=C4C[C@@H](O)CC[C@@]43C)[C@@H]1CC[C@@H]2[C@@](C)(O)CCCc1ccccc1 [Oxy22]
fold induction at 2 µM (LXR [1]): 2.2 ± 0.4 | LXR signaling activation (LXR [1]): Activate LXR Signaling

CC(C)CC[C@H](O)[C@@H](C)[C@H]1CC[C@H]2[C@@H]3CC=C4C[C@@H](O)CC[C@]4(C)[C@H]3CC[C@]12C [22(S)-hydroxycholesterol]
CM-induced Hh signaling (Hedgehog signaling): did not have similar inhibitory effects

C[C@]12CC[C@H]3[C@@H](CC=C4C[C@@H](O)CC[C@@]43C)[C@@H]1CC[C@@H]2[C@@](C)(O)CCc1cccnc1 [Oxy43, (3S,8S,9S,10R,13S,14S,17S)-17-((S)-2-Hydroxy-4-(yridine-3-yl)butan-2-yl)-10,13-dimethyl-2,3,4,7,8,940,11,12,13,14,15,16,17-tetradecahydro-1H-cyclopenta-[a]-phenanthren-3-ol]
fold induction at 2 µM (LXR [1]): 2.5 ± 0.8 | LXR signaling activation (LXR [1]): Activate LXR Signaling
